Data reported in ChEMBL document CHEMBL1201862, “PubChem BioAssay data set” (2004).
pIC50: −log10 of the molar value. Calls of active or inactive are those of the source.

Tests used:
[1] = target: Peroxisome proliferator-activated receptor gamma/Nuclear receptor corepressor 2 (Homo sapiens, UniProt P37231+Q9Y618); test: Counterscreen for NR2E3 inverse agonists: TR-FRET-based biochemical high throughput dose response assay to identify inverse agonists of the interaction between peroxisome proliferator-activated receptor gamma (PPARg) and nuclear receptor co-repressor 2 (NCOR2).; type: functional
[2] = target: Photoreceptor-specific nuclear receptor (Homo sapiens, UniProt Q9Y5X4); test: ligands suppressing NR2E3 nuclear receptor activity – biochemical, TR-FRET, dose response (AID 463256); type: functional
[3] = target: Solute carrier family 12 member 2/member 5 (Homo sapiens, UniProt P55011+Q9H2X9); test: KCC2 and NKCC1 inhibition by rubidium flux, cell-based, NKCC1 counter-screen (AID 1734); type: functional, HEK293
[4] = target: Heat shock protein HSP 90-alpha (Homo sapiens, UniProt P07900); test: Luminescence-based dose response biochemical high throughput screening assay for inhibitors of the Heat Shock Protein 90 (HSP90). [Related pubchem assays: 1831 (Summary AID.), 1846 (Confirmation screen.), 1789 (Primary screen.)]
Cytochrome P450 3A4 = Cytochrome P450 3A4 (Homo sapiens, UniProt P08684);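 also: CYP3A4 tested as one member of a cytochrome P450 panel screen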
[5] = target: 5-hydroxytryptamine receptor 1A (Homo sapiens, UniProt P08908); type: functional
[6] = target: T1, DNA repair protein RAD52 homolog (Homo sapiens, UniProt P43351); type: functional, biochemical
T1 sequence (P43351 whole entry): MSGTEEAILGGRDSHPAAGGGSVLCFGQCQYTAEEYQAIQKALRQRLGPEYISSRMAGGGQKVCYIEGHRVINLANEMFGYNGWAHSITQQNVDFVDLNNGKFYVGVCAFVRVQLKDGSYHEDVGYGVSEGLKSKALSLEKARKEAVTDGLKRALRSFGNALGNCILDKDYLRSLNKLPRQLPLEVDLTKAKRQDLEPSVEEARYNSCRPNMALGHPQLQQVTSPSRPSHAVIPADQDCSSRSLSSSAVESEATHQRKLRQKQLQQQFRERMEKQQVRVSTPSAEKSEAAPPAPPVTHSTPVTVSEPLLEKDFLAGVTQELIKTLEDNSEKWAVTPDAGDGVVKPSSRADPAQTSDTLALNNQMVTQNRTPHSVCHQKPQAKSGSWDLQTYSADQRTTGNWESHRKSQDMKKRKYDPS

[7] = Luminescence Cell-Based Dose Confirmation HTS to Identify Inhibitors of Polyadenylation.; type: functional
Streptokinase A = target: T2, Streptokinase A (Streptococcus pyogenes serotype M1, UniProt P10520); test: viability-normalized secreted streptokinase activity reduction – plasminogen activation absorbance, OD405, dose response (AID 1914); type: functional, Streptococcus pyogenes M1 GAS;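 also: secreted streptokinase activity via plasminogen activation per viability signal from cell pellet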
T2 sequence (P10520 whole entry): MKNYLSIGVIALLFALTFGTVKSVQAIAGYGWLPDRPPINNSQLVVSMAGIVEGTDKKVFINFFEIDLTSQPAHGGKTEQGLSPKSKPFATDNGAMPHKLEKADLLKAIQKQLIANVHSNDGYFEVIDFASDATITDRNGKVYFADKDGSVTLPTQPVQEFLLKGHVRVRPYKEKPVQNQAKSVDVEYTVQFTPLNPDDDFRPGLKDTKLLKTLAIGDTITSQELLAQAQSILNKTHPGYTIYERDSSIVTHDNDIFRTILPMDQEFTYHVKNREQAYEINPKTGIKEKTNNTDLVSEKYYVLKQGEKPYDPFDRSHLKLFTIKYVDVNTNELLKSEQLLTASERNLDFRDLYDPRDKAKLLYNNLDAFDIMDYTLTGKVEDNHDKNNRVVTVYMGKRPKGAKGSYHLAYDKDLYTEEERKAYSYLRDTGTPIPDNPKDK

[8] = A Cell Based Secondary Assay To Explore Cytotoxicity of Compounds that Sensitize Mycobacterium Tuberculosis to Beta-Lactam Antibiotics.; type: functional
Vero [9] = test: cells; type: functional; settings: Chlorocebus sabaeus
[10] = test system: Streptococcus sp. 'group A'; test: Streptococcus pyogenes SK(-)GAS viability under kanamycin – luminescence, BacTiterGlo, confirmation, counter-screen for streptokinase expression inhibitor project, dose response (AID 1900); type: functional, organism-based
Vero [11] = test: mammalian cell viability reduction – secondary assay, cytotoxicity control for West Nile virus antiviral project, dose response (AID 1650); type: functional; settings: Chlorocebus sabaeus
[12] = target: T3, Delta-type opioid receptor (Homo sapiens, UniProt P41143); test: HTS Image-Based Screen for Agonists of the DOR Receptor. [Related pubchem assays (depositor defined):AID1777, AID1786, AID2133]; type: functional
[13] = target: T4, Kappa-type opioid receptor (Homo sapiens, UniProt P41145); type: functional
Streptococcus = test: GAS UMAA2166 growth inhibition – luminescence, BacTiterGlo, counter-screen for streptokinase expression inhibitor project, dose response (AID 1915); type: functional, organism-based;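 also: potency for reduction of bacterial viability or growth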
Mu-type opioid receptor = Mu-type opioid receptor (Homo sapiens, UniProt P35372); test: HTS Image-Based Screen for Agonists of the MOR Receptor. [Related pubchem assays (depositor defined):AID1777, AID1785, AID1786, AID2133]; type: functional;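 also: imaging of beta-arrestin GFP recruitment into spots after receptor activation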
[14] = target: T5, Type-1 angiotensin II receptor (Homo sapiens, UniProt P30556); test: antagonism of angiotensin II type 1 receptor – cell-based, uHTS hits, selectivity assay for APJ receptor antagonist project, dose response (AID 463214); type: functional;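 also: antagonist potency against angiotensin II stimulated AT1 response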
T5 sequence (P30556 whole entry): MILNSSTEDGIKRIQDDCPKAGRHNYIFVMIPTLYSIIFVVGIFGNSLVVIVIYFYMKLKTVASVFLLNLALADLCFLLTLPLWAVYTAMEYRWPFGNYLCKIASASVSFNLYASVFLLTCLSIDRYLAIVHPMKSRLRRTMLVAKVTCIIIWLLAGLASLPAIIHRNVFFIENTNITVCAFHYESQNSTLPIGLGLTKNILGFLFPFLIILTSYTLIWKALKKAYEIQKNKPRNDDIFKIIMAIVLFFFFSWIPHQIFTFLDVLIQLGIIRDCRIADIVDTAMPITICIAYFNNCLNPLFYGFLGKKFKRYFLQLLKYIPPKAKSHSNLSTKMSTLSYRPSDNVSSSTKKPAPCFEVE

[15] = target: T4, Kappa-type opioid receptor; type: functional; remark: listed apart in the source
[16] = target: T3, Delta-type opioid receptor; test: HTS Image-Based Screen for Antagonists of the DOR Receptor. [Related pubchem assays (depositor defined):AID1777, AID1785, AID1786, AID2133]; type: functional
Vero [17] = test: cells; type: functional, cell-based; settings: Chlorocebus sabaeus
Beta-galactosidase [18] = target: T6, Beta-galactosidase (Escherichia coli, UniProt Q8VNN2); test: PubChem AID 485352; type: functional
Beta-galactosidase [19] = target: T6, Beta-galactosidase; type: functional
[20] = growth inhibition of PfATP4-mutant resistant parasites – NITD609-resistant line, SYBR Green, dry powder, dose response (AID 1159571); type: functional, cell-based;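 also: parasites synchronized at ring stage by sorbitol before testing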
[21] = toxicity to human HepG2 hepatoma cells – cell-based, plate reader, dry powder samples, cytotoxicity control, dose response (AID 1159569); type: functional;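 also: inhibitor potency with signal falling toward the positive control level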
[22] = Plasmodium falciparum Dd2 Sybr green parasite growth Measured in Cell-Based and Microorganism Combination System Using Plate Reader - 2153-01_Inhibitor_Dose_DryPowder_Activity_Set3.; type: functional
[23] = growth inhibition of yeast DHODH-expressing 3D7 parasites – SYBR Green, dry powder samples, dose response (AID 1159570); type: functional, cell-based;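 also: parasite growth measured after 72 hours of compound exposure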
[24] = P. falciparum Dd2 growth inhibitors, dose response, SYBR Green, cherry-picked samples (AID 1159567); type: functional, cell-based
[25] = Dd2 malaria parasite growth inhibition potency – SYBR Green, dry powder samples, dose response (AID 1159566); type: functional, cell-based;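 also: potency for growth inhibition with lower SYBR green DNA signal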
HT-1080 = test: HT1080 cell viability loss – fluorescence readout (AID 620); type: functional, cell-based; settings: Homo sapiens
[26] = target: T7, Histone-lysine N-methyltransferase NSD2 (Homo sapiens, UniProt O96028); type: biochemical
T7 sequence (O96028 whole entry): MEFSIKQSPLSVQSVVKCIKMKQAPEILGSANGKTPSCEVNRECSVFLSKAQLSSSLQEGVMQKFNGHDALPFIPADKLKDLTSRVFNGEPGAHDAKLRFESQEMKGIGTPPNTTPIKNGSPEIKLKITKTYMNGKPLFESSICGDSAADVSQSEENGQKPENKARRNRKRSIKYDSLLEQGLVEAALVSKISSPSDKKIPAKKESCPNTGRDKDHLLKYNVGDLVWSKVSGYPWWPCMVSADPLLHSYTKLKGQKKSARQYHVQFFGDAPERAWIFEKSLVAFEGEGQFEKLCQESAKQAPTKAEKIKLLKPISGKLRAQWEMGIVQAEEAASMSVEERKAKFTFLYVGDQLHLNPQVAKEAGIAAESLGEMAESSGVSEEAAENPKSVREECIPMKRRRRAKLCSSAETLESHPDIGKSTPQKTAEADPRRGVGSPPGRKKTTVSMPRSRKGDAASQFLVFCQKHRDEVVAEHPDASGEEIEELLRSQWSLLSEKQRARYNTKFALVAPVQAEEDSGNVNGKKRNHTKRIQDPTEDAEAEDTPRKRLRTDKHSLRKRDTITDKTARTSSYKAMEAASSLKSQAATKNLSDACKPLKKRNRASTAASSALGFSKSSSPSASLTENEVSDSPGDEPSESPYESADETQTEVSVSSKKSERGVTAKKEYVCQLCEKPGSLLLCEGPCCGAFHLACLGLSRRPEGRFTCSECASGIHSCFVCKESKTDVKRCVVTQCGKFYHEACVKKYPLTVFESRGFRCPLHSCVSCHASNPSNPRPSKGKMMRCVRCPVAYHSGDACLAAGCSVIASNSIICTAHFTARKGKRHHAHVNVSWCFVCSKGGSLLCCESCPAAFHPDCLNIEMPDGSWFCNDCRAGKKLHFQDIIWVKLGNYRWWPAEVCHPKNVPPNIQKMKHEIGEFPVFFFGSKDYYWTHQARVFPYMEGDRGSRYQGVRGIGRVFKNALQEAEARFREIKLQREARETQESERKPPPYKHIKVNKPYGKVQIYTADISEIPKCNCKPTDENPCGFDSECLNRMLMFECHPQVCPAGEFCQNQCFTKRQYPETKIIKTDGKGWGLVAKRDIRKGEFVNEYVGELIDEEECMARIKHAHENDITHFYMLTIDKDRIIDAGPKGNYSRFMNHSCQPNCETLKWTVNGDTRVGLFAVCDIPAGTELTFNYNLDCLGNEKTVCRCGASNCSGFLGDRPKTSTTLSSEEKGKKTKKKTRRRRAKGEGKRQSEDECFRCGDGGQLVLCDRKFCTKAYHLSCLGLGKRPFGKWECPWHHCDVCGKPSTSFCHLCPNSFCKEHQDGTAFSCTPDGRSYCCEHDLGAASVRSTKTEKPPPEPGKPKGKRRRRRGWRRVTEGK

Vero [27] = test: inhibition of WNV-induced cytopathic effect – cell-based, CPE readout (AID 1621); type: functional; settings: Chlorocebus sabaeus
[28] = target: Protein-tyrosine kinase 2-beta (Homo sapiens, UniProt Q14289);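 also: potency of inhibitors of PYK2 kinase phosphorylation of poly-GT substrate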
H4 = test: Luminescence Cell-Based Dose Response HTS to Identify Activators of 5'UTR Stem-Loop Driven Prion Protein mRNA Translation in H4 Neuroglioblastoma Cells. [Related pubchem assays: 1829 (Project Summary), 1814 (Primary HTS)]; type: functional; settings: Homo sapiens
[29] = Luminescence Cell-Based Dose Response HTS to Identify Activators of Luciferase Translation or Activity in H4 […] Cells. [Related pubchem assays: 1829 (Project Summary), 1814 (Primary HTS)]; type: functional
[30] = target: Aryl hydrocarbon receptor (Homo sapiens, UniProt P35869); test: Luminescence-based cell-based high throughput dose response assay for activators of the Aryl Hydrocarbon Receptor (AHR). [Related pubchem assays: 2796 (Primary screen (AHR activators in singlicate)), 2845 (Confirmation screen (AHR activators in triplicate)), 434939 (Counterscreen (PXR activators in triplicate)), 2804 (Summary (AHR activators))]; type: ADME
Genome polyprotein = Genome polyprotein (Hepatitis C virus, UniProt Q2Q167); test: disruption of hepatitis C core self-association – biochemical, TR-FRET, dose response (AID 2159); set-up: species or system Hepacivirus hominis;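 also: blocks dimerization of HCV core protein measured by TR-FRET between tagged core106 pairs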
Genome polyprotein, sequence (Q2Q167 whole entry): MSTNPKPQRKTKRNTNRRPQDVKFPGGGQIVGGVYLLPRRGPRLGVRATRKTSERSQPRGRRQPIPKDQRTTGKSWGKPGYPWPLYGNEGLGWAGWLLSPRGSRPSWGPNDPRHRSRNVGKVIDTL

T4 sequence (P41145 whole entry): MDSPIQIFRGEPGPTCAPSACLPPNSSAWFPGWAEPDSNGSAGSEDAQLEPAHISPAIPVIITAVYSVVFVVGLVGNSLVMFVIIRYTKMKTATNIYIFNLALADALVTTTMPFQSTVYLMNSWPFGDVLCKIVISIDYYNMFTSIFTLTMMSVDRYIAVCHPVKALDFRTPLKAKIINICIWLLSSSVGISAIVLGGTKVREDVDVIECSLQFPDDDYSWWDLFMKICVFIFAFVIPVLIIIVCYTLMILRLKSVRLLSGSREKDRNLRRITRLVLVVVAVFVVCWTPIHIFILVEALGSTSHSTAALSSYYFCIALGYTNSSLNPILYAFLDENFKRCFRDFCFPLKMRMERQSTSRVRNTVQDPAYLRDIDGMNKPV
T6 sequence (Q8VNN2 whole entry): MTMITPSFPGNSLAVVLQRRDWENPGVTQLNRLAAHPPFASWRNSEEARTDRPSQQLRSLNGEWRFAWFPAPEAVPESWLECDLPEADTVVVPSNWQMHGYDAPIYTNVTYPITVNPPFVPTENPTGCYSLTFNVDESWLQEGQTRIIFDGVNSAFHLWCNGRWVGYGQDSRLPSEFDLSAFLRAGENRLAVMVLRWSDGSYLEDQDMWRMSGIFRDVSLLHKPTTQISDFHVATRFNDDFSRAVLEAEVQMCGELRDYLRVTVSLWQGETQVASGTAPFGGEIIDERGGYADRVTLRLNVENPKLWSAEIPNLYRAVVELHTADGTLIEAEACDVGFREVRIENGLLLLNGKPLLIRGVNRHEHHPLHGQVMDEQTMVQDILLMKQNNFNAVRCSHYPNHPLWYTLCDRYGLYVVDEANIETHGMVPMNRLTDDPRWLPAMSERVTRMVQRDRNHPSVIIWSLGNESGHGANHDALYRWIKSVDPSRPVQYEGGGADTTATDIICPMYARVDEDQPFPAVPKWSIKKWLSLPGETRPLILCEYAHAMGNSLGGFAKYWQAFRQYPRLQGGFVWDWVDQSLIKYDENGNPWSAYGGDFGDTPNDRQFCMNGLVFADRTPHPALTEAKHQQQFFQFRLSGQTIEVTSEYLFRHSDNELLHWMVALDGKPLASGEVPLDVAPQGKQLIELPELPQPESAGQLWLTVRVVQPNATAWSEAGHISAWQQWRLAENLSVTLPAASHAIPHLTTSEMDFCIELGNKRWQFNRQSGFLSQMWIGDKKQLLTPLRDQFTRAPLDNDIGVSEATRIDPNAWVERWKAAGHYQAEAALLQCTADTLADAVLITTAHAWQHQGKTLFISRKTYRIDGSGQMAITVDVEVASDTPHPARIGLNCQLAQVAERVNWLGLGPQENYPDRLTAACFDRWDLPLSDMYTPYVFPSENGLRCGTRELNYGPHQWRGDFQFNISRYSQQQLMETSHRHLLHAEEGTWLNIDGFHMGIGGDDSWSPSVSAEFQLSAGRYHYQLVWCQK
T3 sequence (P41143 whole entry): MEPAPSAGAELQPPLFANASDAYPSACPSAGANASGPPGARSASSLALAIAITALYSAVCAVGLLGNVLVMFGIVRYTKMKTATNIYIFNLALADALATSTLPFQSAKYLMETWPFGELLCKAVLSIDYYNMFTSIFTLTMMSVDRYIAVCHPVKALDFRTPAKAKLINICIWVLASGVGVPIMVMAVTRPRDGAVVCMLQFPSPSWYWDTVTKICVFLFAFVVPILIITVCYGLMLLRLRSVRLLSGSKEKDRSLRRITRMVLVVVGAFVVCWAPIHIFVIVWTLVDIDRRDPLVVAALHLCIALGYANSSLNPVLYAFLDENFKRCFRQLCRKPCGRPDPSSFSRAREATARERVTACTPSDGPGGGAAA
Peroxisome proliferator-activated receptor gamma/Nuclear receptor corepressor 2, sequence (P37231 whole entry): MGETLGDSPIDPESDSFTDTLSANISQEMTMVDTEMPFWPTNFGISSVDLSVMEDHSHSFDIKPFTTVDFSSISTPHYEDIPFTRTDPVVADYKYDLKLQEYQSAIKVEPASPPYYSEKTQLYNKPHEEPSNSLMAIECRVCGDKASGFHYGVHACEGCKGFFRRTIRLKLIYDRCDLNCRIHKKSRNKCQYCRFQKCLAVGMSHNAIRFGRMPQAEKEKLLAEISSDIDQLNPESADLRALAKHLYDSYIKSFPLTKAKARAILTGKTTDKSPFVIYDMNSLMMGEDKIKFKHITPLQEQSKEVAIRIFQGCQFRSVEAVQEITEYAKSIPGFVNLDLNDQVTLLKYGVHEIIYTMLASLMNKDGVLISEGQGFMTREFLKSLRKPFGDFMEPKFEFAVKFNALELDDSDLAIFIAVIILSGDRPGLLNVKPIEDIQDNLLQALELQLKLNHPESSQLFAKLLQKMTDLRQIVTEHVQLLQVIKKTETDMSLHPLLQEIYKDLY
Peroxisome proliferator-activated receptor gamma/Nuclear receptor corepressor 2, sequence (Q9Y618 whole entry): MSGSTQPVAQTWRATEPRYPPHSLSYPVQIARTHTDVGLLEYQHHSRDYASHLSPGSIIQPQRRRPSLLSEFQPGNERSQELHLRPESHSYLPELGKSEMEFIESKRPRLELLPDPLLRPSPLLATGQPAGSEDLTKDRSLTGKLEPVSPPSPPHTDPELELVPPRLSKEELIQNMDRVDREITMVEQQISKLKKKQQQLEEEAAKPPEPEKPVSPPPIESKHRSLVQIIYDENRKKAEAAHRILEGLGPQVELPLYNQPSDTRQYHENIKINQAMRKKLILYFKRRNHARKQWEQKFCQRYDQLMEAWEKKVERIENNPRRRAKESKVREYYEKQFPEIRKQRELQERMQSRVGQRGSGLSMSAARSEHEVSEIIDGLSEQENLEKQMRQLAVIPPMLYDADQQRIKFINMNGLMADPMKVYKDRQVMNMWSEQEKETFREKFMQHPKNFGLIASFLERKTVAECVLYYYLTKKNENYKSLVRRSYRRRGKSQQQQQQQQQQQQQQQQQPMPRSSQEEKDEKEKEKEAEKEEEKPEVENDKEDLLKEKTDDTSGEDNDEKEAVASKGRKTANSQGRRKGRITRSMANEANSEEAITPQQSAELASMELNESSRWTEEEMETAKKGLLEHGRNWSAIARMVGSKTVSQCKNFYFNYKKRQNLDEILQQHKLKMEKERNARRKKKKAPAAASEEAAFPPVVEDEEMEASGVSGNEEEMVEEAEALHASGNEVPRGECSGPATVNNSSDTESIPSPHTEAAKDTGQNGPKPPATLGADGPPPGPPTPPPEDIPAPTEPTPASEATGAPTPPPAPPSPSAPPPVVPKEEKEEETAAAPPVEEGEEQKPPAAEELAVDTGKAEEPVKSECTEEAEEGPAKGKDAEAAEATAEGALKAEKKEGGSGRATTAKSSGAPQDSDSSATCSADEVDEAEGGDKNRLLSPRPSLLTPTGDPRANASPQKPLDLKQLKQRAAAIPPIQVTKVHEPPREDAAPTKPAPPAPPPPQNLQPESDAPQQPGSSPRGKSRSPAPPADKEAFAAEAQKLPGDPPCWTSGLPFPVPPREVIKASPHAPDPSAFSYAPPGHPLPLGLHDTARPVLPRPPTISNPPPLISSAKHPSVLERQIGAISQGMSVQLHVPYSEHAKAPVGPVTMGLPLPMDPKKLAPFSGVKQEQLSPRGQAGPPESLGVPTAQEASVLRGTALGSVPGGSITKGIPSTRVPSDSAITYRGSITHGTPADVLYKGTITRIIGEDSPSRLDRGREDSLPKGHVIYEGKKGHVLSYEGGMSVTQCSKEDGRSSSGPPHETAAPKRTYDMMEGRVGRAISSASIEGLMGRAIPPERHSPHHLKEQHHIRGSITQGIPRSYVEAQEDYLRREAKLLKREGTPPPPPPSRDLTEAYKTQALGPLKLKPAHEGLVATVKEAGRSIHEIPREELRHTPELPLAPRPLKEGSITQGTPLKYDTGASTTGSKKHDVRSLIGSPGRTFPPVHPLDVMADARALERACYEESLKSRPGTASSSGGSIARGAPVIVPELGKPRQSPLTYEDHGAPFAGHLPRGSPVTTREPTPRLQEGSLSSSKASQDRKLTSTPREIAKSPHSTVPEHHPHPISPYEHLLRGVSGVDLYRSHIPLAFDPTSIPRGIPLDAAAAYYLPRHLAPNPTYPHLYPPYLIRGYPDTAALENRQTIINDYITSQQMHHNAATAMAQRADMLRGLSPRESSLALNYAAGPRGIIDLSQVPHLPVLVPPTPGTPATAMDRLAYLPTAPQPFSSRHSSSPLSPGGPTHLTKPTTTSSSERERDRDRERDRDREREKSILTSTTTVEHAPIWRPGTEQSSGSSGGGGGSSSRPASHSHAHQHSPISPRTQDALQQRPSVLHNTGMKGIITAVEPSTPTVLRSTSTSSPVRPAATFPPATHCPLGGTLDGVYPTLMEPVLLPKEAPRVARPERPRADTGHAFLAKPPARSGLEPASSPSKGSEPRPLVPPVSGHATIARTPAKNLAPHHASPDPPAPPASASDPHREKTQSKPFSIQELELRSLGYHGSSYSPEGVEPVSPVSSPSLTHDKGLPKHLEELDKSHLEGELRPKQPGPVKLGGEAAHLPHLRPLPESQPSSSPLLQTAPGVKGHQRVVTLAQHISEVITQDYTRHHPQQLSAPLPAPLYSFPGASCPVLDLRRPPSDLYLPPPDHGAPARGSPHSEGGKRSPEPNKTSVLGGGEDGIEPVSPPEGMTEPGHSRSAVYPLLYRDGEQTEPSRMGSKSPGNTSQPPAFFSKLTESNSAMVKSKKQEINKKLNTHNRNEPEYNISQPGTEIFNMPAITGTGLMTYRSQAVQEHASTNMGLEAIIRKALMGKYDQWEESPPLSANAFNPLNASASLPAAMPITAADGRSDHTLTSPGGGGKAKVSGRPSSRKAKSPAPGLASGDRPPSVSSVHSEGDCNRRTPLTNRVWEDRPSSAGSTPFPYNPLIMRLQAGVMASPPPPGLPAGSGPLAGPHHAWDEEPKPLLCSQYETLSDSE

SMILES: COc1ccc(C(=O)NCc2ccc(-c3nc4ccccc4s3)cc2)cc1OC
- IC50 [1]: 6.27 µM (active)
- IC50 [2]: 5.83 µM (active)

SMILES: O=C(CCS(=O)(=O)Cc1ccccc1)Nc1nc2c(s1)CCCC2
- IC50 [3]: 13.4 µM (active)

SMILES: CCOC(=O)C1CCCN(C(=O)c2sc3nc(-c4ccc(OC)cc4)cn3c2C)C1 (configuration not stated)
- IC50 [4]: 5.85 µM (active)
- AC50 (Cytochrome P450 3A4): 14.1 µM (inconclusive)

SMILES: Cc1[nH]c2ccccc2c1C1=CCNCC1
- EC50 [5]: > 50 µM (not active)
- AC50 [6]: 4.56 µM (active)

SMILES: Cc1ccc(S(=O)(=O)Nc2cccc3cccnc23)c([N+](=O)[O-])c1
- EC50 [7]: > 120 µM (not active)
- EC50 (Streptokinase A): > 150 µM (not active)
- CC50 [8]: 5.64 µM (active)
- CC50 (Vero [9]): 7.85 µM (active)
- EC50 [10]: 0.707 µM (active)
- CC50 (Vero [11]): 5.79 µM (active)
- EC50 [12]: > 32 µM (inactive)
- pIC50 [13]: < 4.49
- EC50 (Streptococcus): 17.4 µM (active)
- EC50 (Mu-type opioid receptor): > 32 µM (inactive)
- IC50 [14]: 8.21 µM (active)
- IC50 [15]: 5.55 µM (active)
- IC50 [16]: > 32 µM (inactive)
- IC50 (Vero [17]): 18.4 µM (active)
- EC50 (Beta-galactosidase [18]): > 40 µM (inactive)
- EC50 (Beta-galactosidase [19]): > 31.5 µM (inactive)

SMILES: CC(C)NC(=O)N1[C@H](C#N)[C@H](c2ccc(C#CC3CCCC3)cc2)[C@@H]1CO
- AC50 [20]: 0.887 µM (active)
- AC50 [21]: 36.7 µM (active)
- AC50 [22]: 0.845 µM (active)
- AC50 [23]: 3.52 µM (active)
- AC50 [24]: 0.803 µM (active)
- AC50 [25]: 0.684 µM (active)

SMILES: COc1ccc2[nH]c(-c3ccc(N)cc3)nc2c1
- EC50 (HT-1080): > 50 µM (not active)

SMILES: COc1ccc(-c2csc(N(CCCN(C)C)C(=O)c3ccccc3Cl)n2)cc1
- AC50 [26]: > 20 µM (inactive)
- IC50 (Vero [27]): 25 µM (active)

SMILES: NC(=O)c1sc2nc3c(c(-c4ccco4)c2c1N)CCC3
- IC50 [28]: 10.2 µM (not active)

SMILES: Cc1ccc(/C=N/n2cc(-c3ccccc3)nc2S)s1
- EC50 (H4): 20 µM (active)
- EC50 [29]: 10.4 µM (active)
- EC50 [30]: 1.44 µM (active)

SMILES: COc1ccc(C(=O)NC(=S)Nc2ccc3[nH]c(=O)[nH]c3c2)c(OC)c1
- IC50 (Genome polyprotein): > 49.8 µM (not active)
